Results published in patent US8153808B2, “Dihydropyridone amides as P2X7 modulators” (Roche Palo Alto LLC, priority 2008, dated 2012).

Biological target: T1, P2X7 (UniProt Q99572)
T1 sequence (Q99572 1-595): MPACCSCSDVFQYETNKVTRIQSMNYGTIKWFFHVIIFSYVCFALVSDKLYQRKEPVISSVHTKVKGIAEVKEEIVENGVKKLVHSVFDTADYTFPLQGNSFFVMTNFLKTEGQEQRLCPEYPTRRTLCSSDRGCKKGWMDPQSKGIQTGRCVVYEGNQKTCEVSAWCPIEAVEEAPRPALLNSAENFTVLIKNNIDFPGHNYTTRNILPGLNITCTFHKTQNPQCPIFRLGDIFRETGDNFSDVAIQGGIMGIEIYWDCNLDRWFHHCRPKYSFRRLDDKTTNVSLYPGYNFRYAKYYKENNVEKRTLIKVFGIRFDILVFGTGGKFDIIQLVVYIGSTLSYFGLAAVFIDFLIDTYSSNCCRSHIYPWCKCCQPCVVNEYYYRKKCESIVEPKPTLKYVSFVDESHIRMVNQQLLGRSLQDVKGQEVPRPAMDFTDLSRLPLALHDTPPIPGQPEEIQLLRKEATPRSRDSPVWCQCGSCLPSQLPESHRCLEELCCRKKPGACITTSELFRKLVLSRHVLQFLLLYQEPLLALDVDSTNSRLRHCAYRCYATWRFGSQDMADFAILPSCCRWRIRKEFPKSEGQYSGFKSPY
Experiment: pIC50 values for P2X7 (Table 1)
Type: cell-based
Description: Intracellular Calcium Flux (FLIPR) Assay
Stock solutions of compounds were prepared from powders as a 10 mM DMSO stock solution. These solutions were stored at RT during the two week period of these experiments to prevent freeze-thaw of the DMSO stocks. The DMSO stocks were added to the appropriate assay buffer at a concentration of 10 μM, and then diluted serially to the final concentrations that were tested. […] The aqueous solutions of compounds as well as ATP (Sigma A7699) and BzATP (Sigma B6396) were prepared fresh for each day of experiment.
1321N1 cells stably expressing the full length human P2X7 gene (1321N1-hP2X7) and HEK293 cells stably expressing the full length rat P2X7 gene (HEK293-rP2X7) were obtained from the Roche Cell Culture Facility. 1321N1-hP2X7 cells were grown in Dulbecco's Modified Eagle's Medium (DMEM) high glucose supplemented with 10% FBS and 250 μg/mL G418. HEK293-rP2X7 cells were grown in DMEM/F-12 supplemented with 10% FBS, 1 mM CaCl2, 2 mM MgCl2, 2 mM L-Glutamine and 500 μg/ml G418. Cells were split such that they never became >70% confluent.
On the day prior to the experiment, 1321N1-hP2X7 or HEK293-rP2X7 cells were released into suspension with calcium-free PBS+Versene and washed by centrifugation with calcium-free PBS to remove the Versene. Cells were resuspended in growth medium at a density of 2.5×10^5 cells/mL and seeded into black walled, clear bottom 96 well plates (50,000 cells/well) approximately 18 hr prior to intracellular calcium flux experiments.
On the day of the experiment, plates were washed with FLIPR buffer (calcium- and magnesium-free Hank's Balanced Salt Solution (HBSS) supplemented with 10 mM Hepes, 2.5 mM probenecid and 2 mM calcium chloride) using a BIO-TEK 96 channel plate washer and incubated with […] fluo-3 dye at 37° C. for one hr. The dye was then removed by plate washing and the cells were allowed to equilibrate for 20 min at room temperature with antagonist or vehicle (FLIPR buffer). Agonist (100 μM BzATP final concentration for hP2X7; 5 μM BzATP final concentration or rP2X7) was added online with the FLIPR and fluorescence measurements made at 1 sec intervals for 60 sec followed by 3 sec intervals for a further 4 min (5 min total). A final addition of 5 μM ionomycin was made and the maximal BzATP-evoked fluorescence normalized to the maximal ionomycin-evoked fluorescence.

| pIC50 P2X7 | Compound |
| --- | --- |
| 6.984 | COc1cc(I)c(CC(=O)N2C=CC(=O)CC2c2ccccc2)cc1OC (centres unmarked) [Compound 1, 1-[2-(2-Iodo-4,5-dimethoxy-phenyl)-acetyl]-2-phenyl-2,3-dihydro-1H-pyridin-4-one] |
| 5.963 | COc1cc(I)c(CC(=O)N2C=CC(=O)CC2c2ccccc2C)cc1OC (centres unmarked) [Compound 2, 1-[2-(2-Iodo-4,5-dimethoxy-phenyl)-acetyl]-2-o-tolyl-2,3-dihydro-1H-pyridin-4-one] |
| 7.418 | COc1cc(I)c(CC(=O)N2C=CC(=O)C[C@H]2c2ccccc2)cc1OC [Compound 4, (S)-1-[2-(2-Iodo-4,5-dimethoxy-phenyl)-acetyl]-2-phenyl-2,3-dihydro-1H-pyridin-4-one] |
| 5.425 | COc1cc(I)c(CC(=O)N2C=CC(=O)C[C@@H]2c2ccccc2)cc1OC [Compound 5, (R)-1-[2-(2-Iodo-4,5-dimethoxy-phenyl)-acetyl]-2-phenyl-2,3-dihydro-1H-pyridin-4-one] |
| 6.97 | COc1cc(I)c(CC(=O)N2C=CC(=O)CC2c2ccc(F)cc2)cc1OC (centres unmarked) [Compound 6, 2-(4-Fluoro-phenyl)-1-[2-(2-iodo-4,5-dimethoxy-phenyl)-acetyl]-2,3-dihydro-1H-pyridin-4-one] |
| 6.765 | COc1ccc(Br)c(CC(=O)N2C=CC(=O)CC2c2ccccc2)c1 (centres unmarked) [Compound 7, 1-[2-(2-Bromo-5-methoxy-phenyl)-acetyl]-2-phenyl-2,3-dihydro-1H-pyridin-4-one] |
| 5.685 | COc1ccc(CC(=O)N2C=CC(=O)CC2c2ccccc2)c(Br)c1 (centres unmarked) [Compound 8, 1-[2-(2-Bromo-4-methoxy-phenyl)-acetyl]-2-phenyl-2,3-dihydro-1H-pyridin-4-one] |
| 5.45 | COc1cc(Br)c(CC(=O)N2C=CC(=O)CC2C(C)C)cc1OC (centres unmarked) [Compound 9, 1-[2-(2-Bromo-4,5-dimethoxy-phenyl)-acetyl]-2-isopropyl-2,3-dihydro-1H-pyridin-4-one] |
| 7.193 | COc1cc(Br)c(CC(=O)N2C=CC(=O)CC2C2CCCCC2)cc1OC (centres unmarked) [Compound 10, 1-[2-(2-Bromo-4,5-dimethoxy-phenyl)-acetyl]-2-cyclohexyl-2,3-dihydro-1H-pyridin-4-one] |
| 6.806 | COc1cc(Cl)c(CC(=O)N2C=CC(=O)CC2c2ccccc2)cc1OC (centres unmarked) [Compound 11, 1-[2-(2-Chloro-4,5-dimethoxy-phenyl)-acetyl]-2-phenyl-2,3-dihydro-1H-pyridin-4-one] |
| 5.305 | O=C1C=CN(C(=O)Cc2cc3c(cc2Br)OCCO3)C(c2ccccc2)C1 (centres unmarked) [Compound 12, 1-[2-(7-Bromo-2,3-dihydro-benzo[1,4]dioxin-6-yl)-acetyl]-2-phenyl-2,3-dihydro-1H-pyridin-4-one] |
| 7.22 | COc1cc(Br)c(CC(=O)N2C=CC(=O)C[C@H]2c2ccccc2)cc1OC [Compound 13, (S)-1-[2-(2-Bromo-4,5-dimethoxy-phenyl)-acetyl]-2-phenyl-2,3-dihydro-1H-pyridin-4-one] |
| 6.705 | COc1cc(Cl)c(CC(=O)N2C=CC(=O)C[C@H]2c2ccccc2)cc1OC [Compound 14, (S)-1-[2-(2-Chloro-4,5-dimethoxy-phenyl)-acetyl]-2-phenyl-2,3-dihydro-1H-pyridin-4-one] |
| 5.395 | COc1cc(CC(=O)N2C=CC(=O)CC2c2ccccc2)c(C(F)(F)F)cc1OC (centres unmarked) [Compound 15, 1-[2-(4,5-Dimethoxy-2-trifluoromethyl-phenyl)-acetyl]-2-phenyl-2,3-dihydro-1H-pyridin-4-one] |
| 7.17 | CCOc1cc(CC(=O)N2C=CC(=O)C[C@H]2c2ccc(F)cc2)c(Br)cc1OC [Compound 16, (S)-1-[2-(2-Bromo-5-ethoxy-4-methoxy-phenyl)-acetyl]-2-(4-fluoro-phenyl)-2,3-dihydro-1H-pyridin-4-one] |
| 6.535 | CCOc1cc(Br)c(CC(=O)N2C=CC(=O)C[C@H]2c2ccc(F)cc2)cc1OC [Compound 17, (S)-1-[2-(2-Bromo-4-ethoxy-5-methoxy-phenyl)-acetyl]-2-(4-fluoro-phenyl)-2,3-dihydro-1H-pyridin-4-one] |
| 6.93 | COc1cc(Br)c(CC(=O)N2C=CC(=O)C[C@H]2c2ccc(F)cc2)cc1OCC1CC1 [Compound 18, (S)-1-[2-(2-Bromo-5-cyclopropylmethoxy-4-methoxy-phenyl)-acetyl]-2-(4-fluoro-phenyl)-2,3-dihydro-1H-pyridin-4-one] |
| 7.6125 | COc1cc(Br)c(CC(=O)N2C=CC(=O)C[C@H]2c2ccc(F)cc2)cc1OC [Compound 19, (S)-1-[2-(2-Bromo-4,5-dimethoxy-phenyl)-acetyl]-2-(4-fluoro-phenyl)-2,3-dihydro-1H-pyridin-4-one] |
| 6.08 | COc1cc(CC(=O)N2C=CC(=O)C[C@H]2c2ccc(F)cc2)c(Br)cc1OCC1CC1 [Compound 20, (S)-1-[2-(2-Bromo-4-cyclopropylmethoxy-5-methoxy-phenyl)-acetyl]-2-(4-fluoro-phenyl)-2,3-dihydro-1H-pyridin-4-one] |
| 7.165 | COc1cc(Br)c(CC(=O)N2C=CC(=O)CC2c2ccc(F)cc2)cc1OC (centres unmarked) [Compound 22, 1-[2-(2-Bromo-4,5-dimethoxy-phenyl)-acetyl]-2-(4-fluoro-phenyl)-2,3-dihydro-1H-pyridin-4-one] |
| 6.305 | COc1cc(Br)c(CC(=O)N2C=CC(=O)C[C@H]2c2ccc(F)cc2)cc1OC(F)F [Compound 24, (S)-1-[2-(2-Bromo-5-difluoromethoxy-4-methoxy-phenyl)-acetyl]-2-(4-fluoro-phenyl)-2,3-dihydro-1H-pyridin-4-one] |
| 6.28 | COc1cc(Br)c(CC(=O)N2C=CC(=O)CC2c2cccc(Cl)c2)cc1OC (centres unmarked) [Compound 25, 1-[2-(2-Bromo-4,5-dimethoxy-phenyl)-acetyl]-2-(3-chloro-phenyl)-2,3-dihydro-1H-pyridin-4-one] |
| 5.895 | O=C1C=CN(C(=O)Cc2cc(OC(F)F)c(OC(F)F)cc2Br)[C@H](c2ccc(F)cc2)C1 [Compound 26, (S)-1-[2-(2-Bromo-4,5-bis-difluoromethoxy-phenyl)-acetyl]-2-(4-fluoro-phenyl)-2,3-dihydro-1H-pyridin-4-one] |
| 6.35 | COc1cc(Br)c(CC(=O)N2C=CC(=O)CC2C2CCCC2)cc1OC (centres unmarked) [Compound 27, 1-[2-(2-Bromo-4,5-dimethoxy-phenyl)-acetyl]-2-cyclopentyl-2,3-dihydro-1H-pyridin-4-one] |
| 5.415 | COc1cccc(C2CC(=O)C=CN2C(=O)Cc2cc(OC)c(OC)cc2Br)c1 (centres unmarked) [Compound 28, 1-[2-(2-Bromo-4,5-dimethoxy-phenyl)-acetyl]-2-(3-methoxy-phenyl)-2,3-dihydro-1H-pyridin-4-one] |
| 6.625 | COc1cc(CC(=O)N2C=CC(=O)C[C@H]2c2ccc(F)cc2)c(Br)cc1C [Compound 29, (S)-1-[2-(2-Bromo-5-methoxy-4-methyl-phenyl)-acetyl]-2-(4-fluoro-phenyl)-2,3-dihydro-1H-pyridin-4-one] |
| 6.4 | COc1cc(CC(=O)N2C=CC(=O)C[C@H]2c2ccc(F)cc2)c(Br)cc1Cl [Compound 30, (S)-1-[2-(2-Bromo-4-chloro-5-methoxy-phenyl)-acetyl]-2-(4-fluoro-phenyl)-2,3-dihydro-1H-pyridin-4-one] |
| 6.59 | COc1cc(CC(=O)N2C=CC(=O)CC2c2ccc(F)cc2)c(Br)cc1C (centres unmarked) [Compound 31, 1-[2-(2-Bromo-5-methoxy-4-methyl-phenyl)-acetyl]-2-(4-fluoro-phenyl)-2,3-dihydro-1H-pyridin-4-one] |
| 6.17 | COc1cc(CC(=O)N2C=CC(=O)CC2c2ccc(F)cc2)c(Br)cc1Cl (centres unmarked) [Compound 32, 1-[2-(2-Bromo-4-chloro-5-methoxy-phenyl)-acetyl]-2-(4-fluoro-phenyl)-2,3-dihydro-1H-pyridin-4-one] |
